# Molecular target: T1, AURKB (Aurora B) (Homo sapiens, UniProt Q96GD4)
# T1 construct: purchased Thermo Fisher Scientific (Life Technologies) SelectScreen
# Experiment: SelectScreen Z'LYTE
# Type: biochemical
# Procedure, shortened: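 NU5455 was profiled across the SelectScreen Broad panel of kinase activity and binding assays. Z'LYTE reactions such as CSF1R ran at apparent Km ATP, while the Adapta CAMK1 assay used ATP listed as 10. Values are given as percent.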
# T1 sequence (Q96GD4 whole entry): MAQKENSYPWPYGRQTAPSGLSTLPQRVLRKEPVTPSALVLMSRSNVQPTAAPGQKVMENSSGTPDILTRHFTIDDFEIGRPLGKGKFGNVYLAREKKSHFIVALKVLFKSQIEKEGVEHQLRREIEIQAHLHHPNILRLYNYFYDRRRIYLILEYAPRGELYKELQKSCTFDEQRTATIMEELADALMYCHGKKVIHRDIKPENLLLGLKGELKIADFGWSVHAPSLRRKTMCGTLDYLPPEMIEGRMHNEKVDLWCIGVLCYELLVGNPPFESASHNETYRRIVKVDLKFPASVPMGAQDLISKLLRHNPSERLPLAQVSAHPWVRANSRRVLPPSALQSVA
compound,measurement,value
CN(C(=O)CN1CCOCC1)c1ccc2sc3c(-c4cccc5c(=O)cc(N6CC7CCC(C6)O7)oc45)cccc3c2c1 [NU5455],inhibition at 1 µM,1.7%

# From publication PMC6934184, “Selective DNA-PKcs inhibition extends the therapeutic index of localized radiotherapy and chemotherapy” (The Journal of Clinical Investigation, 2019)
